Experimental data as given in ChEMBL document CHEMBL1145220, “Design and synthesis of highly active Alzheimer's beta-secretase (BACE1) inhibitors, KMI-420 and KMI-429, with enhanced chemical stability” (Bioorg Med Chem Lett, 2005).
Numbered stars: 1 amine (or outer) side, 2 acyl side, 3 side chain; on linkers, the order of the positions; unused ones are H or OH. Square brackets hold non-standard residues; d marks the D form. Peptide text beside a SMILES is read from it. * marks the point of attachment. β3hPhe(2R-OH) = O=C([C@H](O)[C@H](Cc1ccccc1)N[*:1])[*:2]; Tetrazole5carbonyl = O=C(c1nn[nH]n1)*; Oxalyl = O=C(C(=O)[*:2])[*:1]; Dap = NC[C@H](N)C(=O)O

Legend:
[1] = target: T1, Beta-secretase 1 (Homo sapiens, UniProt P56817); assay: Inhibitory activity against beta-secretase 1 (BACE1)
T1 sequence (P56817 whole entry): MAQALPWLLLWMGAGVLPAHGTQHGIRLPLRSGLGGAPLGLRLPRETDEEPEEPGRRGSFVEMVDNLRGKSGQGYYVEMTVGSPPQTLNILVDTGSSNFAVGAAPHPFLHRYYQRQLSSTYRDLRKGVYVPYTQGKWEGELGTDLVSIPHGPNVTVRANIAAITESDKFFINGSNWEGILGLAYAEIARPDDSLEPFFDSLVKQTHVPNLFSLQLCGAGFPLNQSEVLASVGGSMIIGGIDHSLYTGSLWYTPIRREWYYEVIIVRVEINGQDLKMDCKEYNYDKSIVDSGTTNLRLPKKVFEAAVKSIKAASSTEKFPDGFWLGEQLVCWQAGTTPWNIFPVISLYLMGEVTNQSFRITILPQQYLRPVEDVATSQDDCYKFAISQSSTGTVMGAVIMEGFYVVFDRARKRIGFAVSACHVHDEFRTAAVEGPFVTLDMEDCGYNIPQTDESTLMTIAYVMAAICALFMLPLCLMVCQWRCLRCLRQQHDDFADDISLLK

[2] = target: T1, Beta-secretase 1; assay: Inhibitory activity against beta-secretase 1 (BACE1) at 2 uM
[3] = target: T1, Beta-secretase 1; assay: Inhibitory activity against beta-secretase 1 (BACE1) at 0.2 uM

Question: With `CC(C)C[C@H](NC(=O)[C@@H](NC(=O)[C@@H](N)CNC(=O)c1nnn[nH]1)C(C)C)C(=O)N[C@@H](Cc1ccccc1)[C@@H](O)C(=O)Nc1cc(C(=O)O)cc(C(=O)O)c1` as the compound, how does the IC50 [1] read?
Answer: Its IC50 is 3.9 nM.

Question: How did the inhibition [2] turn out when `CC(C)C[C@H](NC(=O)[C@@H](NC(=O)[C@H](CN)NC(=O)c1nn[nH]n1)C(C)C)C(=O)N[C@@H](Cc1ccccc1)[C@@H](O)C(=O)Nc1cccc(C(=O)O)c1` was run?
Answer: Its inhibition is 0%.

Question: Which inhibition [2] does the source give for `CC(C)C[C@H](NC(=O)[C@@H](NC(=O)[C@@H](N)CNC(=O)c1nn[nH]n1)C(C)C)C(=O)N[C@@H](Cc1ccccc1)[C@@H](O)C(=O)N[C@@H](CC(=O)O)C(=O)N[C@@H](C)C(=O)N[C@@H](CCC(=O)O)C(=O)O` (H-[Dap](Tetrazole5carbonyl)VL[β3hPhe(2R-OH)]DAE-OH) here?
Answer: Its inhibition is 93%.

Question: And the inhibition [3]?
Answer: Its inhibition is 73.1%.

Question: Which inhibition [2] does the source give for `CC(C)C[C@H](NC(=O)[C@@H](NC(=O)[C@@H](N)CNC(=O)C(=O)O)C(C)C)C(=O)N[C@@H](Cc1ccccc1)[C@@H](O)C(=O)Nc1cc(C(=O)O)cc(C(=O)O)c1` here?
Answer: Its inhibition is 99.8%.

Question: And the inhibition [3]?
Answer: The inhibition was 96.7%.

Question: What about the IC50 [1] of the same compound?
Answer: The IC50 was 4.7 nM.

Question: Which inhibition [2] does the source give for `CC(C)C[C@H](NC(=O)[C@@H](NC(=O)[C@H](CN)NC(=O)C(=O)O)C(C)C)C(=O)N[C@@H](Cc1ccccc1)[C@@H](O)C(=O)Nc1cccc(C(=O)O)c1` here?
Answer: The inhibition was 87.9%.

Question: What about the inhibition [3] of the same compound?
Answer: Its inhibition is 58.6%.

Question: For `CC(C)C[C@H](NC(=O)[C@@H](NC(=O)[C@@H](N)CNC(=O)c1nn[nH]n1)C(C)C)C(=O)N[C@@H](Cc1ccccc1)[C@@H](O)C(=O)Nc1cc(C(=O)O)cc(C(=O)O)c1`, which inhibition [2] is on record?
Answer: The inhibition was 100%.

Question: And the inhibition [3]?
Answer: Its inhibition is 98.1%.

Question: Which inhibition [2] does the source give for `CC(C)C[C@H](NC(=O)[C@@H](NC(=O)[C@H](CN)NC(=O)c1nn[nH]n1)C(C)C)C(=O)N[C@@H](Cc1ccccc1)[C@@H](O)C(=O)N[C@@H](CC(=O)O)C(=O)N[C@@H](C)C(=O)N[C@@H](CCC(=O)O)C(=O)O` (Tetrazole5carbonyl-[Dap]VL[β3hPhe(2R-OH)]DAE-OH) here?
Answer: Its inhibition is 23.2%.

Question: For `CC(C)C[C@H](NC(=O)[C@@H](NC(=O)[C@H](CN)NC(=O)C(=O)O)C(C)C)C(=O)N[C@@H](Cc1ccccc1)[C@@H](O)C(=O)N[C@@H](CC(=O)O)C(=O)N[C@@H](C)C(=O)N[C@@H](CCC(=O)O)C(=O)O` (Oxalyl-[Dap]VL[β3hPhe(2R-OH)]DAE-OH), which inhibition [2] is on record?
Answer: Its inhibition is 75.2%.

Question: Which results are given for `CC(C)C[C@H](NC(=O)[C@@H](NC(=O)[C@@H](N)CNC(=O)C(=O)O)C(C)C)C(=O)N[C@@H](Cc1ccccc1)[C@@H](O)C(=O)Nc1cccc(C(=O)O)c1`?
Answer: inhibition [2]: 98.4%; inhibition [3]: 85.5%; IC50 [1]: 16 nM

Question: Which IC50 [1] does the source give for `CC(C)C[C@H](NC(=O)[C@@H](NC(=O)[C@@H](N)CNC(=O)c1nnn[nH]1)C(C)C)C(=O)N[C@@H](Cc1ccccc1)[C@@H](O)C(=O)Nc1cccc(C(=O)O)c1` here?
Answer: Its IC50 is 8.2 nM.

Question: Which inhibition [2] does the source give for `CC(C)C[C@H](NC(=O)[C@@H](NC(=O)[C@@H](N)CNC(=O)C(=O)O)C(C)C)C(=O)N[C@@H](Cc1ccccc1)[C@@H](O)C(=O)N[C@@H](CC(=O)O)C(=O)N[C@@H](C)C(=O)N[C@@H](CCC(=O)O)C(=O)O` (H-[Dap](Oxalyl)VL[β3hPhe(2R-OH)]DAE-OH) here?
Answer: Its inhibition is 96.7%.

Question: And the inhibition [3]?
Answer: Its inhibition is 57.6%.

Question: And the IC50 [1]?
Answer: The IC50 was 84 nM.

Question: What does the source list for `CC(C)C[C@H](NC(=O)[C@@H](NC(=O)[C@@H](N)CNC(=O)c1nn[nH]n1)C(C)C)C(=O)N[C@@H](Cc1ccccc1)[C@@H](O)C(=O)Nc1cccc(C(=O)O)c1`?
Answer: inhibition [2]: 99%; inhibition [3]: 87.1%
